Each structure is given as a SMILES string.

Assay [1] has as its system mushroom spines in hippocampal CA1 neurons. Briefly: Dendritic spine analysis in mice hippocampus after i.p. treatment. It is filed as in vivo, mouse. The settings on record: i.p. 10 mg/kg for 10 weeks.
For another assay, the system named is spine nSOC channels. Briefly: GCamp5.3 Ca2+ imaging of synaptic nSOC in cultured hippocampal neurons. The assay is classed as cell-based, mouse.
Another assay deals with amyloid plaques. Put plainly: Aβ immunohistochemistry, amyloid plaque load in APPKI mice. The assay is classed as in vivo, mouse. The note with it: 13 month-old APPKI mice; i.p. 10 mg/kg three times per week for 8 weeks.

For `CC(=O)Nc1ccc(CCNc2ncnc3ccc(N)cc23)cc1` [NSN21778, N-{4-[2-(6-Amino-quinazolin-4-ylamino)-ethyl]-phenyl}-acetamide], the “mushroom spine deficiency in vivo” value in assay [1] (PS1KIGFP and APPKIGFP mice) is given as “rescue of mushroom spine deficiency”. Further, the “mushroom spines in vivo” value in assay [1] (WTGFP mice) is reported as “no effect”. Besides, the “spine nSOC” value in the assay on spine nSOC channels (PS1KI and APPKI hippocampal neurons, 300 nM applied prior to Ca2+ re-addition) is “rescued spine nSOC”. For the same compound, the “spine nSOC” value with spine nSOC channels (wild-type spines, 300 nM) was “no significant effect”. Also, in the assay on amyloid plaques, the plaque intensity entry is recorded as “significant reduction” and the total plaque area result is “significant reduction”.
